Laboratory results taken from patent publication US9823260B2, “Method to increase bioavailability of the delta-opioid receptor for management of pain and neuropsychiatric disorders” (priority 2014, dated 2017).

What was measured:
Assay type in all cases: in vivo
[1] = test system: male C57BL6J mice; assay: Warm water tail withdrawal assay (thermal nociception)
Procedure: (§1) The first three graphs in FIG. 2 show the function response of DOR on the surface. An EPAC FRET sensor was used with live cell imaging under physiologic conditions of 37° C. The modulation of the cAMP activity was determined by performing a ratiometric analysis of an the donor fluorophore (Cyan Fluorescent Protein) image divided by the FRET image yielding a blue color for low cAMP and red for high cAMP. DOR was concomitantly visualized by fluorescent tagging. […] The two images on the bottom-right of FIG. 2 show data in an experiment in which mechanical allodynia and tail withdrawal latency was performed in male C57BL6J mice 9-10 weeks old to determine the effects of the DOR agonist SNC-80 in the presence or absence of PTEN inhibition. […] All mice received SNC-80 (10 mg/kg IP). Additionally, pretreatment of mice with the PTEN inhibitor bpv(Phen) increased the antinociceptive effect of the DOR agonist SNC-80. Together, these methods can be used for stimulated DOR delivery as a convergent strategy for improving the efficacy of DOR agonists.
In this experiment, thermal nociception was determined by using the warm water tail withdrawal assay, with a cut-off of 12 s at 52.5° C. water temperature. After 3 basal measurements, mice were injected with vehicle or bpv(phen)(10 mg/kg SC), and returned to their home cages. […] They were subsequently tested every 15 minutes for 90 minutes. All animals were male C57b16J mice of 9-10 weeks of age, n=8 per group. […] Mechanical allodynia was tested using standard protocols (such as the protocols disclosed by Pradhan et al., 2009, PMID: 1941254) on male C57b16J mice 9-10 weeks old, n=8 per group. Mice were injected with vehicle or bpv(phen)(10 mg/kg), and tested four hours after for reduced allodynia in response to SNC-80. […] Mechanical hyperalgesia was tested in a CFA model for chronic pain. […]
As shown next in FIG. 12 (left), thermal nociception was determined by using the warm water tail withdrawal assay, with a cut-off of 12 s at 52.5° C. water temperature. […]

[2] = test system: male C57BL6J mice; assay: Mechanical allodynia test
Procedure: as §1, with “Additionally, pretreatment of mice with the PTEN inhibitor bpv(Phen) increased the antinociceptive effect of the DOR agonist SNC-80. Together, these methods can be used for stimulated DOR delivery as a convergent strategy for improving the efficacy of DOR agonists.” left out
In this experiment, thermal nociception was determined by using the warm water tail withdrawal assay, with a cut-off of 12 s at 52.5° C. water temperature. […] Four hours post-injection, tail immersion responses were determined and mice were injected with vehicle or SNC80 (10 mg/kg IP). […]
(§2) As shown next in FIG. 12 (left), thermal nociception was determined by using the warm water tail withdrawal assay, with a cut-off of 12 s at 52.5° C. water temperature. […] Four hours post-injection, tail immersion responses were determined and mice were injected with vehicle or SNC80 (10 mg/kg IP). […]

[3] = test system: mice; assay: Mechanical hyperalgesia in a CFA model for chronic pain; details: CFA 72 hours; bpv(phen) 10 mg/kg SC, four hours later SNC 80 3 mg/kg IP
Procedure: In this experiment, thermal nociception was determined by using the warm water tail withdrawal assay, with a cut-off of 12 s at 52.5° C. water temperature. After 3 basal measurements, mice were injected with vehicle or bpv(phen)(10 mg/kg SC), and returned to their home cages. Four hours post-injection, tail immersion responses were determined and mice were injected with vehicle or SNC80 (10 mg/kg IP). They were subsequently tested every 15 minutes for 90 minutes. All animals were male C57b16J mice of 9-10 weeks of age, n=8 per group. […] Mechanical allodynia was tested using standard protocols (such as the protocols disclosed by Pradhan et al., 2009, PMID: 1941254) on male C57b16J mice 9-10 weeks old, n=8 per group. Mice were injected with vehicle or bpv(phen)(10 mg/kg), and tested four hours after for reduced allodynia in response to SNC-80. […] Mechanical hyperalgesia was tested in a CFA model for chronic pain. After baseline recordings, mice were injected with CFA (13 μl, intraplantar) and were tested 72 hours later. On the test day, mice received either bpv(phen)(10 mg/kg SC) or vehicle. […]
as §2

[4] = 2 hour pretreatment with bpV(phen) 10 mg/kg, SNC-80 10 mg/kg IP, versus vehicle

## O.O.O.OO.OO.[K+].[OH-].[V].c1cnc2c(c1)ccc1cccnc12 [bpV(phen)]
[1]; [4]
  tail withdrawal latency with SNC-80: increased compared to vehicle control treated mice
[1]; bpV(phen) without SNC-80, mechanical allodynia and tail withdrawal
  analgesic response to PTEN inhibition alone: did not induce an analgesic response
[1]; vehicle or bpv(phen) 10 mg/kg SC, no SNC80, 52.5° C., tested every 15 minutes for 90 minutes
  tail immersion response versus baseline without SNC80: did not show any significant deviation from the baseline
[2]; [4]
  mechanical allodynia (threshold) with SNC-80: increased compared to vehicle control treated mice
[2]; bpv(phen) 10 mg/kg, tested four hours after
  reduced allodynia in response to SNC-80: showed a response
[3]
  mechanical hyperalgesia response to SNC 80: showed a response to SNC80
